{"source": "ChEMBL document CHEMBL3046852", "about": "“Synthesis and analgesic activity of new pyridine-based heterocyclic derivatives” (2012)", "key": {"Mus musculus [1]": {"test_system": "Mus musculus", "assay": "Analgesic activity in Mus musculus albino (mouse) assessed as latency time at 25 mg/kg, ip after 30 min by tail-flick test", "format": "functional", "conditions": "route intraperitoneal"}, "Mus musculus [2]": {"test_system": "Mus musculus", "assay": "Analgesic activity in Mus musculus albino (mouse) assessed as latency time at 25 mg/kg, ip after 30 min by hot-plate test", "format": "functional", "conditions": "route intraperitoneal"}, "Mus musculus [3]": {"test_system": "Mus musculus", "assay": "Analgesic activity in Mus musculus albino (mouse) assessed as latency time at 25 mg/kg, ip after 30 min in presence of 2 mg/kg, ip of mecamylamine by tail-flick test", "format": "functional"}, "Mus musculus [4]": {"test_system": "Mus musculus", "assay": "Analgesic activity in Mus musculus albino (mouse) assessed as inhibition of formalin-induced paw licking behavior in both phases of formalin response at 25 mg/kg, ip administered 30 min before formalin challenge", "format": "functional, organism-based", "set-up": "dose 25 mg/kg"}, "Mus musculus [5]": {"test_system": "Mus musculus", "assay": "Analgesic activity in Mus musculus albino (mouse) assessed as latency time at 17.5 mg/kg, ip after 30 min by tail-flick test", "format": "functional", "conditions": "route intraperitoneal"}, "Mus musculus [6]": {"test_system": "Mus musculus", "assay": "Analgesic activity in Mus musculus albino (mouse) assessed as latency time at 17.5 mg/kg, ip after 30 min by hot-plate test", "format": "functional", "conditions": "route intraperitoneal"}}, "note": "The source made the active and inactive calls. The calls are words filed in the database; no cut-off is given here.", "data": [{"smiles": "Cc1cc(=O)[nH]n1C(=O)c1cccnc1", "values": [{"measurement": "Time", "setting": "Mus musculus [1]", "value": 5.26, "unit": "s"}, {"measurement": "Time", "setting": "Mus musculus [2]", "value": 7.54, "unit": "s"}]}, {"smiles": "CC(=O)N1N=C(c2cccnc2)OC1C", "note": "(stereo not drawn)", "values": [{"measurement": "Time", "setting": "Mus musculus [1]", "value": 8.95, "unit": "s"}, {"measurement": "Time", "setting": "Mus musculus [3]", "value": 5.14, "unit": "s"}, {"measurement": "Activity", "setting": "Mus musculus [4]", "value": "Active"}, {"measurement": "Time", "setting": "Mus musculus [2]", "value": 10.03, "unit": "s"}]}, {"smiles": "CC(=O)N1N=C(c2ccncc2)OC1c1ccccc1", "note": "(stereo not drawn)", "values": [{"measurement": "Time", "setting": "Mus musculus [1]", "value": 6.03, "unit": "s"}, {"measurement": "Time", "setting": "Mus musculus [2]", "value": 7.78, "unit": "s"}]}, {"smiles": "Cc1nnc(-c2cccnc2)[nH]1", "values": [{"measurement": "Time", "setting": "Mus musculus [1]", "value": 7.99, "unit": "s"}, {"measurement": "Time", "setting": "Mus musculus [3]", "value": 5.17, "unit": "s"}, {"measurement": "Activity", "setting": "Mus musculus [4]", "value": "Active"}, {"measurement": "Time", "setting": "Mus musculus [2]", "value": 9.65, "unit": "s"}]}, {"smiles": "CC(=O)N1N=C(c2cccnc2)OC1c1ccccc1", "note": "(stereo not drawn)", "values": [{"measurement": "Time", "setting": "Mus musculus [1]", "value": 8.44, "unit": "s"}, {"measurement": "Time", "setting": "Mus musculus [3]", "value": 5.13, "unit": "s"}, {"measurement": "Activity", "setting": "Mus musculus [4]", "value": "Active"}, {"measurement": "Time", "setting": "Mus musculus [2]", "value": 10.03, "unit": "s"}]}, {"smiles": "O=[N+]([O-])c1ccccc1-c1nnc(-c2ccncc2)[nH]1", "values": [{"measurement": "Time", "setting": "Mus musculus [1]", "value": 11.8, "unit": "s"}, {"measurement": "Time", "setting": "Mus musculus [3]", "value": 5.23, "unit": "s"}, {"measurement": "Activity", "setting": "Mus musculus [4]", "value": "Active"}, {"measurement": "Time", "setting": "Mus musculus [2]", "value": 15.1, "unit": "s"}]}, {"smiles": "CC(=O)N1N=C(c2cccnc2)OC1c1ccccc1[N+](=O)[O-]", "note": "(stereo not drawn)", "values": [{"measurement": "Time", "setting": "Mus musculus [1]", "value": 4.93, "unit": "s"}, {"measurement": "Time", "setting": "Mus musculus [2]", "value": 7.29, "unit": "s"}]}, {"smiles": "Cc1cc(C)n(C(=O)c2cccnc2)n1", "values": [{"measurement": "Time", "setting": "Mus musculus [1]", "value": 7.69, "unit": "s"}, {"measurement": "Time", "setting": "Mus musculus [3]", "value": 5.18, "unit": "s"}, {"measurement": "Activity", "setting": "Mus musculus [4]", "value": "Active"}, {"measurement": "Time", "setting": "Mus musculus [2]", "value": 8.3, "unit": "s"}]}, {"smiles": "c1ccc(-c2nnc(-c3ccncc3)[nH]2)cc1", "values": [{"measurement": "Time", "setting": "Mus musculus [1]", "value": 5.33, "unit": "s"}, {"measurement": "Time", "setting": "Mus musculus [2]", "value": 7.81, "unit": "s"}]}, {"smiles": "Cc1cc(C)n(C(=O)c2ccncc2)n1", "values": [{"measurement": "Time", "setting": "Mus musculus [1]", "value": 6.4, "unit": "s"}, {"measurement": "Time", "setting": "Mus musculus [2]", "value": 8.11, "unit": "s"}]}, {"smiles": "CC(=O)N1N=C(c2ccncc2)OC1c1ccccc1Cl", "note": "(stereo not drawn)", "values": [{"measurement": "Time", "setting": "Mus musculus [1]", "value": 6.03, "unit": "s"}, {"measurement": "Time", "setting": "Mus musculus [2]", "value": 7.81, "unit": "s"}]}, {"smiles": "Cc1n[nH]c(-c2ccncc2)n1", "values": [{"measurement": "Time", "setting": "Mus musculus [1]", "value": 7.62, "unit": "s"}, {"measurement": "Time", "setting": "Mus musculus [3]", "value": 5.22, "unit": "s"}, {"measurement": "Activity", "setting": "Mus musculus [4]", "value": "Active"}, {"measurement": "Time", "setting": "Mus musculus [2]", "value": 9.49, "unit": "s"}]}, {"smiles": "Clc1ccccc1-c1nnc(-c2cccnc2)[nH]1", "values": [{"measurement": "Time", "setting": "Mus musculus [1]", "value": 5.53, "unit": "s"}, {"measurement": "Time", "setting": "Mus musculus [2]", "value": 8.55, "unit": "s"}]}, {"smiles": "Cc1cc(=O)[nH]n1C(=O)c1ccncc1", "values": [{"measurement": "Time", "setting": "Mus musculus [1]", "value": 5.7, "unit": "s"}, {"measurement": "Time", "setting": "Mus musculus [2]", "value": 7.51, "unit": "s"}]}, {"smiles": "O=[N+]([O-])c1ccccc1-c1nnc(-c2cccnc2)[nH]1", "values": [{"measurement": "Time", "setting": "Mus musculus [1]", "value": 6.15, "unit": "s"}, {"measurement": "Time", "setting": "Mus musculus [2]", "value": 8.47, "unit": "s"}]}, {"smiles": "CC(=O)N1N=C(c2cccnc2)OC1c1ccccc1Cl", "note": "(stereo not drawn)", "values": [{"measurement": "Time", "setting": "Mus musculus [1]", "value": 5.16, "unit": "s"}, {"measurement": "Time", "setting": "Mus musculus [2]", "value": 7.77, "unit": "s"}]}, {"smiles": "c1ccc(-c2n[nH]c(-c3cccnc3)n2)cc1", "values": [{"measurement": "Time", "setting": "Mus musculus [1]", "value": 4.73, "unit": "s"}, {"measurement": "Time", "setting": "Mus musculus [2]", "value": 7.5, "unit": "s"}]}, {"smiles": "CC(=O)N1N=C(c2ccncc2)OC1c1ccccc1[N+](=O)[O-]", "note": "(stereo not drawn)", "values": [{"measurement": "Time", "setting": "Mus musculus [1]", "value": 4.76, "unit": "s"}, {"measurement": "Time", "setting": "Mus musculus [2]", "value": 7.48, "unit": "s"}]}, {"smiles": "CC(C)=CCN1CC[C@@]2(C)c3cc(O)ccc3C[C@@H]1[C@@H]2C", "note": "(relative stereo)", "values": [{"measurement": "Time", "setting": "Mus musculus [5]", "value": 12.84, "unit": "s"}, {"measurement": "Time", "setting": "Mus musculus [6]", "value": 19.89, "unit": "s"}]}, {"smiles": "CC(=O)N1N=C(c2ccncc2)OC1C", "note": "(stereo not drawn)", "values": [{"measurement": "Time", "setting": "Mus musculus [1]", "value": 11.03, "unit": "s"}, {"measurement": "Time", "setting": "Mus musculus [3]", "value": 5.14, "unit": "s"}, {"measurement": "Activity", "setting": "Mus musculus [4]", "value": "Active"}, {"measurement": "Time", "setting": "Mus musculus [2]", "value": 12.93, "unit": "s"}]}, {"smiles": "Clc1ccccc1-c1nnc(-c2ccncc2)[nH]1", "values": [{"measurement": "Time", "setting": "Mus musculus [1]", "value": 11.2, "unit": "s"}, {"measurement": "Time", "setting": "Mus musculus [3]", "value": 5.12, "unit": "s"}, {"measurement": "Activity", "setting": "Mus musculus [4]", "value": "Active"}, {"measurement": "Time", "setting": "Mus musculus [2]", "value": 13.12, "unit": "s"}]}]}
